{"source": "paper PMC3366986", "about": "“On the Mechanism of Action of SJ-172550 in Inhibiting the Interaction of MDM4 and p53” (PLoS ONE, 2012)", "key": {"MDMX (23–111)": {"target": "T1, MDMX (23–111) (Homo sapiens, UniProt O15151)", "T1 construct": "Thermal shift data for MDMX (23–111) showing a 7 degree stabilization; made in house; host or cells: E. coli BL21(DE3)", "T1 sequence (O15151 23-111)": "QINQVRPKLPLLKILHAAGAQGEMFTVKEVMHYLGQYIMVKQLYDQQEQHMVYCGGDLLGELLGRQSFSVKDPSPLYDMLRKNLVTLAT", "assay": "thermal stability of MDMX by hydrophobic dye binding (thermal shift)", "conditions": "for effect of reducing agent used alone on thermal stability of MDMX: without compound 1", "method": "The ITD measurements were performed with a RT-PCR instrument (Applied Biosystems 7900HT) equipped with a 384-well probe using SYBR detection (excitation 495/emission 537). The program used started at 45°C and the temperature increased at a rate of 1 degree per minute. […] The final volume was 20 µl for each well using 384 ABI PRISM™ plates (Applied Biosystems). The data was exported and evaluated using a custom data processing algorithm coded in Pipeline Pilot (Scitegic). Apparent melting temperatures were calculated by measuring the temperature at which the observed fluorescence signal was halfway between the baseline and the maximum. Binding curves were determined by graphing observed apparent melting temperature as a function of test compound concentrations. These curves were then fit to a four parameter sigmoidal dose response model using PRISM 5.0 (GraphPad Software, Inc.)."}, "[1]": {"target": "T2, hMDMX (GST-tagged, a.a. 1–185) (Homo sapiens, UniProt O15151)", "T2 construct": "hMDMX (GST-tagged, a.a. 1–185); made in house; host or cells: E. coli BL21(DE3)", "T2 sequence (O15151 1-185)": "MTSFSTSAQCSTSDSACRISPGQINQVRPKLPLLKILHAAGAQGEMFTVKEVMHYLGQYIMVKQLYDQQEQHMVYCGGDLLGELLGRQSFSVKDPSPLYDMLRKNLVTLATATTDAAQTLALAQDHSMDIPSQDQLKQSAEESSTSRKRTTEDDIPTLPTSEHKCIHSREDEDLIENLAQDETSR", "assay": "fluorescence polarization competition assay, MDMX-p53 peptide binding", "conditions": "for pIC50: Figure 3, read-out: IC50, inhibition of MDMX-p53 peptide binding", "method": "All fluorescence polarization assays were performed in binding buffer (10 mM Tris, pH 8.0, 170 mM NaCl, 0.05% Tween-20) unless otherwise noted. For competition assays a master mix of 15 nM Texas red-labeled (N-terminal label) P53 Peptide (sequence: […]) with 1 µM hMDMX (GST-tagged, a.a. 1–185) was prepared and 20 µl was added to black polystyrene 384 well plates (Corning #3573). DMSO stock solutions of test compounds were then added by pin transfer (V&P scientific) in nano-liter volumes (maximum final DMSO percentage = 1%). The assay mixture was incubated at room temperature for one hour and read on an EnVision multi-label plate reader using a 555 nm excitation filter, a 632 nm emission filter, and a Texas Red FP dichroic mirror. Binding inhibition curves and IC50 values were determined by fitting observed mP values to a 4-parameter sigmoidal binding curve using PRISM 5.0 (GraphPad Software, Inc.)."}, "Mdm2": {"target": "Mdm2 (Homo sapiens, UniProt Q00987)", "sequence (Q00987 whole entry)": "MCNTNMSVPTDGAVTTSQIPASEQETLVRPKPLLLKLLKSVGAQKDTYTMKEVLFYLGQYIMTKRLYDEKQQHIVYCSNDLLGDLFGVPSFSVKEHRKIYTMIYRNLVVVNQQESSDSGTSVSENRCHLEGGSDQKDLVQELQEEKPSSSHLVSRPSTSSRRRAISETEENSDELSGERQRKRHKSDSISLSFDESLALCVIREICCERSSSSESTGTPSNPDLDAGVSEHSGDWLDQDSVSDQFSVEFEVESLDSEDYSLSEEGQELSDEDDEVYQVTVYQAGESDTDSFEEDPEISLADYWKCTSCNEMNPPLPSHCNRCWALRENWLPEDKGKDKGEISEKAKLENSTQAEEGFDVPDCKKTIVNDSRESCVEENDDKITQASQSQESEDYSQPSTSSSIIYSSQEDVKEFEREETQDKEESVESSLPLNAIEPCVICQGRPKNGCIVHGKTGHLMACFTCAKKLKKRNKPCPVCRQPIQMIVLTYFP", "assay": "fluorescence polarization p53 peptide exclusion assay, Mdm2", "assay_type": "binding", "conditions": "ND = compound does not noticeably block interaction with p53 peptide", "text": "(§1) the α,β-unsaturated amide towards Mdm2 and Mdmx as determined using fluorescence\n(§2) polarization p53 peptide exclusion assay. Compound core according to J. Biol. Chem. 2010;\n(§3) 285: 10786 is marked in blue.\n(§4) Compound Chemical formula Compound code Mdm2 MdmX […]"}, "[2]": {"assay": "solubility assay (µSOL Evolution, pION)", "assay_type": "physicochemical", "conditions": "system solution buffer (SSB, pION), pH 7.4, aqueous buffer, kinetic from dmso stock", "method": "Solubility assay was carried out on Biomek FX lab automation workstation (Beckman Coulter, Inc., Fullerton, CA) using µSOL Evolution software (pION Inc., Woburn, MA). The detailed method is described as following. 10 µL of 10 mM compound stock (in DMSO) was added to 190 µL 1-propanol to make a reference stock plate. 5 µL from this reference stock plate was mixed with 70 µL 1-propanol and 75 µL SSB (system solution buffer, pH adjusted to 7.4, pION Inc., Woburn, MA) to make the reference plate, and the UV spectrum (250 nm –500 nm) of the reference plate was read. 6 µL of 10 mM test compound stock was added to 594 µL SSB in a 96-well storage plate and mixed. The storage plate was sealed and incubated at room temperature for 18 hours. The suspension was then filtered through a 96-well filter plate (pION Inc., Woburn, MA). 75 µL filtrate was mixed with 75 µL 1-propanol to make the sample plate, and the UV spectrum of the sample plate was read. Calculation was carried out by µSOL Evolution software based on the AUC (area under curve) of UV spectrum of the sample plate and the reference plate. All compounds were tested in triplicates."}, "MDMX [3]": {"target": "T3, MDMX (Homo sapiens, UniProt O15151)", "T3 sequence (O15151 1-490)": "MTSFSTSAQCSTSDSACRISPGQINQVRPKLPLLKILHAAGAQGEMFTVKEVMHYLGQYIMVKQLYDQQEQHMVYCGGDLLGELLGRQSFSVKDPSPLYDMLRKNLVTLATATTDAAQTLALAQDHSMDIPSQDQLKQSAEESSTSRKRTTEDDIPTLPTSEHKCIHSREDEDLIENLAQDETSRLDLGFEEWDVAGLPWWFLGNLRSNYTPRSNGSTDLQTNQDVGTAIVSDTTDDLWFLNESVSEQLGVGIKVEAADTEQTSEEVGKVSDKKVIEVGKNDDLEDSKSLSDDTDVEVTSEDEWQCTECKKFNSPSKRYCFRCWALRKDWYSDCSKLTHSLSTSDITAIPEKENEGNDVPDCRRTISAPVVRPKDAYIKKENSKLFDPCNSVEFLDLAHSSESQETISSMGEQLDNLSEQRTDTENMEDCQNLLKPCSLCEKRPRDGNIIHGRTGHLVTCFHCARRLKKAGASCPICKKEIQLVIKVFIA", "design": "method as in PMID 20080970", "conditions": "inhibition of the MDMX-p53 interaction; read-out: EC50, competition for wild type p53 peptide binding to MDMX; cited from earlier work"}, "hMDMX (aa 23–111)": {"target": "T4, hMDMX (aa 23–111) (Homo sapiens, UniProt O15151)", "T4 construct": "hMDMX (23–111) was immobilized to the SPR chips using a biotin tag; made in house", "T4 sequence (O15151 23-111)": "T1 sequence (O15151 23-111)", "assay": "SPR binding of compound 1 to immobilized hMDMX", "conditions": "100 µM", "method": "Binding studies were performed at 25°C using a Biacore T100 (GE Healthcare) surface plasmon resonance (SPR) instrument. Either streptavidin or NeutrAvidin (Thermo Scientific) was immobilized on a carboxymethyldextran-coated gold surface (CM5 chip; GE Healthcare) by standard amine coupling methods. The carboxymethyl groups of dextran were activated with N-ethyl-N ´-(3-dimethylaminopropyl) carbodiimide (EDC) and N-hydroxysuccinimide (NHS). For peptide experiments, streptavidin was attached at pH 4.5 in 10 mM sodium acetate to levels of ∼3000 RU per flow cell. For small molecule experiments, NeutrAvidin was attached at pH 5.0 in 10 mM sodium acetate to levels of ∼11000–12000 RU per flow cell. Any remaining reactive sites were blocked by reaction with ethanolamine. Biotin-MDM4 was captured on the chip by injection over the streptavidin or NeutrAvidin surface.\nFor peptide binding experiments, p53wt peptide was prepared as a 3-fold serial dilution in peptide binding buffer (20 mM Bis-Tris pH 6.5, 200 mM NaCl, 0.1 mg/mL bovine serum albumin, 0.005% Tween20, +/−1 mM TCEP). The peptide was injected in triplicate at each concentration at a flow rate of 75 µL/min. […] Equilibrium dissociation constants (K d) for peptide binding were determined by equilibrium affinity analysis with a 1∶1 binding model using Scrubber2."}, "C77A mutant of MDM2": {"target": "C77A mutant of MDM2 (Homo sapiens, UniProt Q00987, C77A)", "sequence (Q00987 whole entry C77A)": "as the sequence (Q00987 whole entry) above, with C77A counted along it", "assay": "covalent labelling of MDM2 C77A mutant", "conditions": "C77A mutation; Figure S6"}, "retinoblastoma cells": {"system": "retinoblastoma cells", "design": "method as in PMID 20080970", "conditions": "cited from earlier work"}, "GST-hMDMX": {"target": "T5, GST-hMDMX (Homo sapiens, UniProt O15151)", "T5 construct": "made in house; host or cells: E. coli BL21(DE3)", "T5 sequence (O15151 1-185)": "T2 sequence (O15151 1-185)", "assay": "mass spectrometry of covalent adducts, GST-tagged hMDMX", "method": "(§5) Samples were prepared in binding buffer (10 mM Tris, pH 8.0, 170 mM NaCl) with a 50 µl final volume. Samples were incubated at room temperature for 1.5 hours after which they were stored overnight at 4°C before analysis by mass spectrometry. Samples containing 1 µM hMDMX constructs were concentrated to 20 µM using 3000 MWCO centrifugal protein concentrators (Vivascience, Inc.) immediately prior to analysis. Prior to injection all samples were desalted using a reverse phase C8 Zip Tip (Millipore) and eluted in 50% acetonitrile, 2% formic acid. The samples were ionized by static nanospray using EconoTips (New Objective) on a Waters LCT Premier XE mass spectrometer using positive mode. The resultant charge envelope was deconvoluted using MaxEnt 1 algorithm of MassLynx V 4.0 sp 4 software. A mass error of 1Da for every 10,000 Da is permissible using this mass spectrometer."}, "MDMX [4]": {"target": "T3, MDMX", "assay": "fluorescence polarization p53 peptide exclusion assay, Mdmx", "assay_type": "binding", "conditions": "ND = compound does not noticeably block interaction with p53 peptide", "text": "as §1, §2, §3, §4"}, "[5]": {"target": "T6, hMDMX (untagged aa 23 to 111 construct) (Homo sapiens, UniProt O15151)", "T6 construct": "hMDMX (untagged aa 23 to 111 construct); His-tag (cleaved yes); made in house; host or cells: E. coli BL21(DE3)", "T6 sequence (O15151 23-111)": "T1 sequence (O15151 23-111)", "assay": "mass spectrometry of covalent adducts, untagged hMDMX", "method": "as §5"}, "hMDM2(18–125)C77V": {"target": "T7, hMDM2(18–125)C77V (Homo sapiens, UniProt Q00987, C77V)", "T7 construct": "a mutant of MDM2 protein (hMDM2(18–125)C77V) lacking the cysteine", "T7 sequence (Q00987 18-125 C77V)": "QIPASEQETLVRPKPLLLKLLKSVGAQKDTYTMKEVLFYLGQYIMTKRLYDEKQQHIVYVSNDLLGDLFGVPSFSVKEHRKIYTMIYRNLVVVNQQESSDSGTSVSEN", "assay": "inhibition of p53 peptide binding to MDM2 cysteine mutant", "conditions": "hMDM2(18–125)C77V relative to MDM2; Figure S6"}}, "note": "pEC50, pIC50, pKi: −log10 of the molar value.", "data": [{"smiles": "O=C(O)c1cc(SSc2ccc([N+](=O)[O-])c(C(=O)O)c2)ccc1[N+](=O)[O-]", "note": "[DTNB, reference compound]", "values": [{"measurement": "effect on melting point of MDMX", "setting": "MDMX (23–111); MDMX treated with Ellman's reagent, Figure S4", "result": "partially stabilized"}, {"measurement": "ability of treated MDMX to bind p53 peptide", "setting": "[1]; MDMX treated with Ellman's reagent, Figure S3", "result": "unable to bind p53 peptide"}]}, {"smiles": "O[C@@H](CS)[C@@H](O)CS", "note": "[DTT]", "values": [{"measurement": "effect of reducing agent used alone on thermal stability of MDMX", "setting": "MDMX (23–111)", "result": "no apparent effect"}]}, {"smiles": "O=C(O)CCP(CCC(=O)O)CCC(=O)O", "note": "[TCEP]", "values": [{"measurement": "effect of reducing agent used alone on thermal stability of MDMX", "setting": "MDMX (23–111)", "result": "destabilized the protein at high concentrations"}]}, {"smiles": "CCOc1cc(/C=C2\\C(=O)N(c3ccccc3)N=C2C)cc(Cl)c1OCC(=O)OC", "note": "[compound 1]", "values": [{"measurement": "stabilization of the protein's melting point", "setting": "MDMX (23–111); addition of compound 1", "result": 7, "unit": "degree"}, {"measurement": "pEC50", "setting": "MDMX (23–111); minimal time dependency (5 min vs 1 h), read-out: apparent EC50 of melting point stabilization", "result": "~6.00"}, {"measurement": "pKi", "setting": "Mdm2", "result": 5.28}, {"measurement": "solubility at 18 h", "setting": "[2]", "result": 12, "unit": "µM"}, {"measurement": "pEC50", "setting": "MDMX [3]", "result": "~5.30"}, {"measurement": "time to return to baseline after the pulse (off rate)", "setting": "hMDMX (aa 23–111); non-reducing conditions", "result": "~5", "unit": "min"}, {"measurement": "SPR binding", "setting": "hMDMX (aa 23–111); reducing conditions (TCEP)", "result": "no binding was observed"}, {"measurement": "ability to covalently label MDM2", "setting": "C77A mutant of MDM2", "result": "abolishes"}, {"measurement": "p53 dependent cell death of retinoblastoma cells", "setting": "retinoblastoma cells", "result": "caused p53 dependent cell death of retinoblastoma cells"}, {"measurement": "covalent adduct formation (mass spectrum)", "setting": "GST-hMDMX; 1 µM GST-hMDMX, 5 µM compound", "result": "no alkylation events"}, {"measurement": "covalent adduct formation (mass spectrum)", "setting": "GST-hMDMX; 20 µM GST-hMDMX, 100 µM compound", "result": "multiple alkylation events"}, {"measurement": "pKi", "setting": "MDMX [4]", "result": 5.09}, {"measurement": "pIC50", "setting": "[1]", "result": 5.52}, {"measurement": "reduction of potency after reaction with glutathione in situ", "setting": "[1]; Figure S5, efficacy not completely removed", "result": 10, "unit": "fold"}, {"measurement": "covalent adduct formation (mass spectrum)", "setting": "[5]; 1 µM hMDMX, 5 µM compound", "result": "no alkylation"}, {"measurement": "covalent adduct formation (mass spectrum)", "setting": "[5]; 20 µM hMDMX, 100 µM compound", "result": "partial alkylation"}, {"measurement": "weaker potency on cysteine-lacking mutant than on MDM2", "setting": "hMDM2(18–125)C77V", "result": 10, "unit": "fold"}]}, {"smiles": "CCOc1cc(CC2C(=O)N(c3ccccc3)N=C2C)cc(Cl)c1OCC(=O)OC", "note": "(centres unmarked) [compound 2]", "values": [{"measurement": "pIC50", "setting": "[1]", "result": "< 4.00"}, {"measurement": "reduction of inhibitory potency by saturation of the ene-amide group", "setting": "[1]; compound 2 relative to compound 1", "result": "roughly 30 fold"}]}]}
